From PubChem BioAssay AID651581 (Sanford-Burnham Center for Chemical Genomics, 2012)
Calls of active or inactive are those of the source. The rule behind the calls is not given here.

How the values were obtained:
[1] = target: Endothelial PAS domain-containing protein 1 (Homo sapiens) (UniProt Q99814); test: potency against HIF reporters across cell lines – luminescence, panel, selectivity assay for HIF-2a inhibitor project, dose response (AID 651581); details: human cell HIF reporter
[2] = target: Hypoxia-inducible factor 1-alpha (Homo sapiens) (UniProt Q16665); test: as above; details: human cell HIF reporter, HIF-1a
Chain of Hypoxia-inducible factor 1-alpha (Homo sapiens) (Q16665 whole entry, looked up): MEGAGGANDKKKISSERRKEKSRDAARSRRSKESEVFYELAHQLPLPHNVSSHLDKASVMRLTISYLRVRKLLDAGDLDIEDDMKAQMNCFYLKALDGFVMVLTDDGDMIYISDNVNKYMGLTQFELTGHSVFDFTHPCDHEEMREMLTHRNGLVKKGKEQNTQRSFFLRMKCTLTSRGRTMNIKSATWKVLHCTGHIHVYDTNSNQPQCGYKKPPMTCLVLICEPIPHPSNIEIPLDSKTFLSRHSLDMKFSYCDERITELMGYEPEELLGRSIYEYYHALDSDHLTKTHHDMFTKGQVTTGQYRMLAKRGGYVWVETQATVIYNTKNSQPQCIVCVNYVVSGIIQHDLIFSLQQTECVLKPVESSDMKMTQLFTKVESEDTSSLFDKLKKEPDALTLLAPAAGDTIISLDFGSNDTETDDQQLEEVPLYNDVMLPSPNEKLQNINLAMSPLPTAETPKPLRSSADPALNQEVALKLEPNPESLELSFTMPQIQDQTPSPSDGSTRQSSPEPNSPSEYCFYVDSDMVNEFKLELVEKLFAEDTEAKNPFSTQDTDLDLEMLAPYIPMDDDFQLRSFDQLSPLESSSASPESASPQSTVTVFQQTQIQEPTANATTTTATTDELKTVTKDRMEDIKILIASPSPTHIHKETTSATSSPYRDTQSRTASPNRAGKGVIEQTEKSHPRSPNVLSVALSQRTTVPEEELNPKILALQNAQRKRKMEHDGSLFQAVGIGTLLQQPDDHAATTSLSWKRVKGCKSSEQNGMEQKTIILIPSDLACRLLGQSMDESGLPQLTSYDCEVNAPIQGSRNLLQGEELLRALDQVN

Row | Compound | IC50 ([1]; HIF-2a PANC, mean of runs) | IC50 ([1]; HIF-2a PANC, run 1) | IC50 ([1]; HIF-2a PANC, run 2) | IC50 ([1]; HIF-2a, mean of runs) | IC50 ([1]; HIF-2a, run 1) | IC50 ([1]; HIF-2a, run 2) | IC50 ([2]; mean of runs) | IC50 ([2]; run 1) | IC50 ([2]; run 2)
1 | Cc1ccc(NC(=O)c2cc(N3C(=O)C=CC3=O)ccc2N2CCOCC2)cc1 | > 99 µM (inactive) | > 99 µM | > 99 µM | 9.77 µM | 9.64 µM | 9.9 µM |  | 64.3 µM | > 99 µM
2 | Cc1ccc(C)c(S(=O)(=O)ON2C(=O)c3ccccc3C2=O)c1 | > 99 µM (inactive) | > 99 µM | > 99 µM | 8.46 µM | 8.53 µM | 8.39 µM |  | > 99 µM | > 99 µM
3 | O=C1C=CC(=O)N1c1ccccc1N1C(=O)C=CC1=O | > 99 µM (inactive) | > 99 µM | > 99 µM | inactive | 13.4 µM | 13.2 µM | inactive | 40.9 µM | 34.6 µM
4 | CC(C)(C)c1ccc(-c2noc(CCC(=O)NCC3CCCO3)n2)cc1 (stereo not drawn) | < 3 µM | < 3 µM | < 10 µM | < 10 µM | < 10 µM | < 10 µM |  | > 99 µM | > 99 µM
5 | COc1ccc2nc(-c3ccc(N)cc3)[nH]c2c1 | 3.65 µM | 5.51 µM | 1.79 µM | 1.88 µM | 2.55 µM | 1.22 µM | 41.4 µM | 38.6 µM | 44.2 µM
6 | Cc1nnnn1/C(=C\c1ccccc1)C(=O)OCC(=O)Nc1ccc(Cl)cc1F | 19.9 µM | 19.3 µM | 20.6 µM | 8.16 µM | 8.44 µM | 7.88 µM | inactive | 16 µM | 21.2 µM
7 | O=C(O)c1cccc(-c2nc3ccccc3[nH]2)c1 | > 99 µM (inactive) | > 99 µM | > 99 µM | inactive | 14.5 µM | 15.5 µM |  | > 99 µM | > 99 µM
8 | O=C(O)c1cccc(C(=O)Nc2cccc(NC(=O)C3CCCO3)c2)c1 (stereo not drawn) | > 99 µM (inactive) | > 99 µM | > 99 µM | inactive | 30.8 µM | 26.9 µM |  | > 99 µM | > 99 µM
9 | COc1ccc(C(=O)/C=C/C(=O)N(CC(=O)NCCC(C)C)Cc2cccs2)c(O)c1 |  | > 99 µM | 63.8 µM | 3.88 µM | 4.21 µM | 3.55 µM | 12.8 µM | 9.47 µM | 16 µM
10 | CN(C)c1c([N+](=O)[O-])cc(N2C(=O)C=CC2=O)cc1[N+](=O)[O-] | inactive | 22.2 µM | 41.7 µM | 8.6 µM | 8.29 µM | 8.9 µM | 52.2 µM | 63.9 µM | 40.5 µM
11 | O=C(c1ccccc1)N1CCSc2sccc2C1=O | 18.9 µM | 28 µM | 9.87 µM | 6.78 µM | 6.98 µM | 6.58 µM | 56.4 µM | 57.6 µM | 55.1 µM
12 | COC(=O)CCCNC(=O)CCc1nnc(-c2ccc(-c3ccccc3)cc2)o1 |  | > 99 µM | 21.3 µM | 2.82 µM | 3.04 µM | 2.6 µM |  | > 99 µM | > 99 µM
13 | CC(C)(C)c1ccc(-c2noc(CCC(N)=O)n2)cc1 | < 0.3 µM | < 1 µM | < 0.3 µM | < 0.3 µM | < 0.3 µM | < 0.3 µM |  | > 99 µM | > 99 µM
14 | N#CCC(=O)N/N=C\c1cccc(OC/C=C/c2ccccc2)c1 |  | > 99 µM | < 30 µM |  | < 30 µM | 8.63 µM |  | > 99 µM | < 30 µM
15 | O=C(Nc1ccc(N2CCOCC2)cc1)c1cnccn1 | inactive | 31.5 µM | 33.2 µM | 9.42 µM | 9.5 µM | 9.33 µM | inactive | 14.5 µM | 21.4 µM
16 | COc1ccc(/C=N\n2nnc3ccccc32)cc1 | 7.03 µM | 7.48 µM | 6.58 µM | < 30 µM (inactive) | < 30 µM | < 30 µM | < 30 µM (inactive) | < 30 µM | < 30 µM
17 | COc1ccccc1N1C(=O)C=C(Sc2nc(C)cc(C)n2)C1=O | > 99 µM (inactive) | > 99 µM | > 99 µM | inactive | 10.2 µM | 11.8 µM |  | 68.3 µM | > 99 µM

More lines, now with the values ahead:

Row | IC50 ([1]; HIF-2a PANC, mean of runs) | IC50 ([1]; HIF-2a PANC, run 1) | IC50 ([1]; HIF-2a PANC, run 2) | IC50 ([1]; HIF-2a, mean of runs) | IC50 ([1]; HIF-2a, run 1) | IC50 ([1]; HIF-2a, run 2) | IC50 ([2]; mean of runs) | IC50 ([2]; run 1) | IC50 ([2]; run 2) | Compound
18 | inactive | 44.8 µM | 51.1 µM | 5.57 µM | 5.49 µM | 5.65 µM | 23.5 µM | 22 µM | 24.9 µM | C(=NNc1ccc2ccccc2n1)c1ccccn1
19 | 4.99 µM | 4.35 µM | 5.63 µM | 2.36 µM | 2.08 µM | 2.64 µM | inactive | 2.3 µM | 2.49 µM | COC(=O)CSc1nnc(-c2sc3ccccc3c2Cl)o1
20 | 0.92 µM | 1.53 µM | 0.311 µM | 0.391 µM | 0.37 µM | 0.412 µM | 1.34 µM | 1.56 µM | 1.12 µM | N#Cc1ccccc1COc1ccc(/C=C/C(=O)O)cc1
21 | 0.7 µM | 0.782 µM | 0.618 µM | < 1 µM | < 1 µM | < 1 µM |  | 0.423 µM | > 99 µM | Nc1ccc(-c2cc3ccccc3c(=O)o2)cc1
22 | 4.5 µM | 3.94 µM | 5.05 µM | inactive | 13 µM | 10.8 µM | inactive | 30.3 µM | 24.8 µM | COc1ccc(-c2cnc3c(NC=O)cc(-c4cccc(NS(C)(=O)=O)c4)cn23)cc1OC
23 |  | > 99 µM | 19.3 µM |  | < 30 µM | > 99 µM | inactive | 18.8 µM | 16.8 µM | O=C(O)c1ccc(N/N=C/c2ccc3ncccc3c2)cc1
24 | inactive | 29.8 µM | 31.1 µM | 8.83 µM | 8.77 µM | 8.9 µM | 27 µM | 28.1 µM | 26 µM | COc1ccc(CNC(=O)c2nc(S(=O)(=O)Cc3ccccc3)ncc2Cl)cc1
25 | 0.506 µM | 0.52 µM | 0.492 µM | 1.1 µM | 1.08 µM | 1.13 µM |  | 69.1 µM | > 99 µM | Nc1ccc2oc(-c3cc(Br)ccc3Cl)nc2c1
26 | 7.76 µM | 8.52 µM | 7.01 µM | inactive | 12 µM | 13.1 µM | inactive | 7.03 µM | 17.2 µM | COc1ccc(/C=C2\SC(=O)N(CCNC(=O)Cn3[nH]c(=O)c4ccccc4c3=O)C2=O)cc1
27 | inactive | 26.2 µM | 22 µM | 7.59 µM | 7.71 µM | 7.47 µM | inactive | 14.6 µM | 16.7 µM | O=C(Nc1ccc(F)cc1)c1nc(S(=O)(=O)Cc2ccccc2)ncc1Cl
28 | 0.796 µM | 0.895 µM | 0.698 µM | 0.374 µM | 0.366 µM | 0.382 µM |  | > 99 µM | > 99 µM | Cc1ccoc1C(=O)Nc1ccc(CC(=O)O)cc1
29 | > 99 µM (inactive) | > 99 µM | > 99 µM | 3.76 µM | 3.87 µM | 3.66 µM |  | > 99 µM | > 99 µM | Cc1ccc(S(=O)(=O)Nc2cccc3cccnc23)c([N+](=O)[O-])c1
30 | 2.88 µM | 3.28 µM | 2.48 µM | 1.07 µM | 1.04 µM | 1.11 µM | inactive | 0.274 µM | 0.637 µM | COC(=O)COc1ccc(-c2nccc(-c3ccccn3)n2)cc1
31 |  | < 30 µM | 32.7 µM |  | 11.2 µM | < 10 µM |  | > 99 µM | > 99 µM | CCOC(=O)c1cccc(NC(=O)Nc2ccc(OCC)cc2)c1
32 | 0.447 µM | 0.529 µM | 0.365 µM | 1.99 µM | 2.32 µM | 1.66 µM | inactive | 4.99 µM | 5.07 µM | CCOc1ccc(-c2cc(CCCC(=O)Nc3cc(OC)ccc3OC)no2)cc1
33 | 0.787 µM | 0.773 µM | 0.801 µM | 1.43 µM | 1.43 µM | 1.44 µM | inactive | 3.16 µM | 2.84 µM | Cc1nc2cc(-c3ccc(Cl)cc3)nn2c(C)c1CCC(=O)NCc1ccco1
34 | > 99 µM (inactive) | > 99 µM | > 99 µM | inactive | 12.5 µM | 10.9 µM | 64.6 µM | 80 µM | 49.2 µM | CC(=O)Nc1ccc(OS(=O)(=O)c2c(C)cc(C)cc2C)cc1
35 | 0.975 µM | 1.08 µM | 0.867 µM | 1.04 µM | 0.993 µM | 1.08 µM | inactive | 1.26 µM | 1.83 µM | O=C(CCCc1nc(-c2ccccc2Cl)no1)NC1CCCC1
